Assay results taken from patent US20140329863A1 (priority 2011, published 2014).
Read-outs that look alike come from different tables or passages of the source.

Key:
[1] = system: PrP^Sc in dividing ScN2a-cl3 cells; type: cell-based, mouse
[2] = system: PrP^C in T98G cells; type: cell-based, human; conditions: read-out: EC50 (μM) ELISA potency, PrP^C in T98G cells
[3] = Hepatic microsomal stability, mouse; conditions: mouse liver microsomes
[4] = Hepatic microsomal stability, human; conditions: human liver microsomes
[5] = Table 29, 2-AMT analogs tested for potency, usually n = 3 or more

Compound | EC50 [2] [µM] | other results
Cc1ccc(Nc2nc(-c3ccc(OC(F)(F)F)cc3)cs2)nc1 [IND26, (5-Methyl-pyridin-2-yl)-[4-(4-trifluoromethoxy-phenyl)-thiazol-2-yl]-amine] | – | melting point: 205 to 207 °C; EC50 ([1]; AMT analogs tested for potency): > 10 µM; EC50 [1, 5]: > 10 µM
Cc1ccc(Nc2nc(-c3cccc(C#N)c3)cs2)nc1 [IND38, 3-[2-(5-Methyl-pyridin-2-ylamino)-thiazol-4-yl]-benzonitrile] | – | melting point: 268 to 272 °C; EC50 ([1]; AMT analogs tested for potency): 2.29 µM; EC50 [1, 5]: 2.29 µM
Cc1ccnc(Nc2nc(-c3ccc4c(c3)OCCO4)cs2)c1 [IND57, [4-(2,3-Dihydro-benzo[1,4]dioxin-6-yl)-thiazol-2-yl]-(4-methyl-pyridin-2-yl)-amine] | – | melting point: 230 to 240 °C; EC50 ([1]; AMT analogs tested for potency): > 10 µM; EC50 [1, 5]: > 10 µM
COc1cc(C(=O)c2cc(Cl)ccc2N)cc(OC)c1OC [IND1323] | 0.085 | –
CC1=CC(C)(C)N(S(=O)(=O)c2ccc(C)cc2)c2cc(C)ccc21 [IND5418] | 0.649 | –
CCOC(=O)c1[nH]c(C)c(C(=O)c2ccc(C)cc2)c1C [IND5672] | 0.593 | –
CCOc1ccccc1C1C(C#N)=C(N)Oc2cc(N(C)C)ccc21 (stereo not shown) [IND8541] | 0.155 | Hepatic Extraction Ratio Mouse ([3]; predicted hepatic extraction): 0.97; half-life at 1 μM ([3]; mouse, pH 7.4): 1.71 min; Hepatic Extraction Ratio Human ([4]; predicted hepatic extraction): 0.77; half-life at 1 μM ([4]; human, pH 7.4): 20.3 min
Cc1ccn2c(-c3csc(Nc4ccc(N(C)C)nc4)n3)c(C)nc2c1 [IND9756] | 0.18 | –
CCOc1ccc2c(c1)C(C)=CC(C)(C)N2S(=O)(=O)c1ccc(C)cc1 [IND16365] | 0.304 | –
CN(C)c1ccc2c(c1)OC(N)=C(C#N)C2c1cccc(F)c1 (stereo not shown) [IND17990] | 0.031 | –
Cc1cc(C)c(S(=O)(=O)NCc2ccncc2)c(C)c1 [IND18762] | 4.13 | –
CN(C)c1ccc2c(c1)OC(N)=C(C#N)C2c1cccs1 (stereo not shown) [IND23846] | 0.21 | –
COC(=O)c1[nH]c2c(c1C)C(=O)CC(c1cccs1)C2 (stereo not shown) [IND73602] | 0.521 | –
N#Cc1c(NC(=O)CCc2cccs2)sc2c1CCCC2 [IND82865] | 0.242 | –
O=C(Nc1ccc(I)cn1)c1cccc(F)c1 [IND84911] | 0.55 | –
CCc1nnc(NC(=O)c2ccoc2COc2ccccc2)s1 [IND85692] | 2.28 | –
O=C(Nc1ccncc1)C1CCCN1S(=O)(=O)c1ccc2ccccc2c1 (stereo not shown) [IND86287] | 2.65 | –
Cc1nc2ncccn2c1-c1csc(Nc2ccc(Cl)cc2)n1 [IND115948] | 1.85 | –
